The source of these data is PMC4481117 (Molecular Pain, 2015).

One assay has as its system I-less form of Mac-1. Briefly: Adhesion of HEK293 cells expressing the I-less form of Mac-1. The settings on record: peptide immobilized at 10 μM, 30 min at 37 °C. The format is cell-based, Human. How it is done: Fig. 3 Adhesion of Mac-1-expressing cells to Dyn A and Dyn B. a, Mac-1-expressing and wild-type HEK293 cells were labeled with calcein and 5x10^4 cells were added to the wells coated with different concentrations of the Dyn A. After 30 min at 37 °C, nonadherent cells were removed and fluorescence was measured. The data shown are means of triplicate determinations, and error bars represent S.E. The figure is representative of 8 experiments. b , adhesion of HEK293 cells expressing Mac-1, LFA and the I-less form of Mac-1 to Dyn A and Dyn B immobilized at 10 μM was determined as described in A. c, calcein-labeled Mac-1-HEK293 cells were preincubated without or with 10 μg/ml of anti-αM mAb 44a or 1 μg/ml NIF for 15 minutes. For testing the role of glucosaminoglycans in cell adhesion, dynorphin A-coated wells were preincubated with 100 μl of 10 μg/ml of chondroitin sulfate A, chondroitin sulfate B and heparin. […]
Adhesion assays were performed essentially as described previously. […] Fluorescence was measured in a CytoFluorII fluorescence plate reader (Perceptive Biosystems, Framingham, MA). […] After aspirating the solution, labeled cells were added and cell adhesion was analyzed as above.

In the next assay the test system is wild-type HEK293 cells. Kind of assay: Transwell migration of wild-type HEK293 cells to Dyn A. The format is cell-based, Human. The settings on record: 16 h at 37 °C. Here is the method: (§1) Fig. 6 Migration of Mac-1-expressing cells to Dyn A in a Transwell system. a, Mac-1-expressing HEK 293 cells (100 μl at 3 × 10^6 cell/ml) were added to the upper wells of the transwell chamber and their ability to migrate to different concentrations of Dyn A placed in the lower chamber was analyzed. After 16 hours at 37 °C, migrated cells were fixed, stained, and counted. Data are presented as numbers of migrated cells per field ± S.E. for five random fields per well. The figure is representative of 5 experiments. b, Mac-1-expressing or wild-type HEK 293 cells were added to the upper wells of the transwell chamber and their ability to migrate to 10 μM Dyn A placed in the lower chamber was analyzed as in A. Some Mac-1-HEK293 cells were pretreated with 20 μg/ml of mAbs 44a (anti-αM), IB4 (anti-β2) or OKM1 (non function-blocking anti-αM) or medium alone before addition to the upper wells. ***, medium alone. […] The number of migrated cells was determined as in A. Data are presented as number of migrated cells per field ± S.E. for five random fields per well. […]
(§2) Migration assays with wild-type and Mac-1-expressing HEK293 cells and purified macrophages using Transwell inserts (5 μm pore size) were performed as previously described. […] The photographs were taken using a 20x objective and cells in […] and cells were counted. […]

A further assay deals with wild-type macrophages. Kind of assay: Transwell migration of wild-type peritoneal macrophages to Dyn A. The settings on record: 10 μM Dyn A, 90 min at 37 °C, TG-elicited. Type of assay: cell-based, mouse. Here is the method: as §1, §2
Assay [1] concerns μ- and δ-opioid receptors. Also noted: method as in PMID 8624732. The settings on record: cited from earlier work.
In the next assay the test system is cells. The conditions noted are these: cited from earlier work.

Turning to `CC[C@H](C)[C@H](NC(=O)[C@H](CCCNC(=N)N)NC(=O)[C@H](CCCNC(=N)N)NC(=O)[C@H](CC(C)C)NC(=O)[C@H](Cc1ccccc1)NC(=O)CNC(=O)CNC(=O)[C@@H](N)Cc1ccc(O)cc1)C(=O)N[C@@H](CCCNC(=N)N)C(=O)N1CCC[C@H]1C(=O)N[C@@H](CCCCN)C(=O)N[C@@H](CC(C)C)C(=O)N[C@@H](CCCCN)C(=O)N[C@@H](Cc1c[nH]c2ccccc12)C(=O)N[C@@H](CC(=O)O)C(=O)N[C@@H](CC(N)=O)C(=O)N[C@@H](CCC(N)=O)C(=O)O` [Dyn A], the “Adhesion of HEK293 cells expressing the I-less form of Mac-1” value in the assay on I-less form of Mac-1 was 7 ± 1%. In addition, in the assay on wild-type HEK293 cells, the “Migration of wild-type HEK293 cells (in words)” value is “did not migrate”. For the same molecule, the “Migration of wild-type macrophages (in words)” value in the assay on wild-type macrophages is given as “migrated to Dyn A”. Also, in assay [1], the “μ- and δ-opioid receptor binding” value is “can bind to μ- and δ-opioid receptors”. In addition, in the assay on cells, the Cell entry entry is “enters the cells”.
